Measured values reported in patent publication US11746328B2, “Methods and systems for functional maturation of iPSC and ESC derived cardiomyocytes” (Agilent Technologies, Inc., priority 2017, dated 2023).

Key:
[1] = tested on: iPSC-derived cardiomyocytes; assay: Inotropic compound screening on functionally matured iPSC-derived cardiomyocytes, xCELLigence RTCA CardioECR (Example VI, FIG. 7, FIG. 8); type: cell-based; conditions: for beating rate: FIG. 7B
Experimental: Cell monolayer preparation. The iPSC-derived cardiomyocytes were seeded at the optimal seeding density in the wells of E-plate CardioECR 48, which were pre-coated with substrate. The attachment, growth and beating activity of the cells were recorded after cell seeding in real-time using xCELLigence RTCA CardioECR station, which was placed in a 37° C. tissue culture incubator. Medium change was performed every other day.
Induction of functionally mature iPSC-derived cardiomyocytes. The electrical pacing was initiated and applied to the cell monolayer after a stable and robust beating activity of iPSC-derived cardiomyocytes is observed using xCELLigence RTCA cardioECR system. The iPSC-derived cardiomyocytes were then electrically paced at 1 Hz, 1.5 Hz and 2 Hz for 1 week respectively using xCELLigence RTCA CardioECR system. The pulse intensity and pulse duration was optimized before each pacing frequency and continuously applied to the cells. The cells were confirmed to beat at the same frequency as the pacing frequency under the pacing condition. Medium change was performed every day during chronic pacing procedure.
Inotropic compound screening. After completion of functional maturation of cardiomyocytes over the course of ramping up pacing process for 3 weeks, the inotropic compound screening was conducted. The old media was replaced with 90 μL of fresh pre-warmed media the night before compound addition. The cells will were continuously paced for an additional 12 hours at 2 Hz using the CardioECR system. The electrical pacing was terminated 6 hours prior to compound application to ensure that cells generated stable beating rate and beating amplitude for treatment. The cell beating activity is monitored and recorded in real-time on the CardioECR system.
The effective concentration ranges for the test substances were determined. The compound solution is prepared as follows. The compounds are dissolved in the appropriate solvent. If DMSO is used as the solvent, dissolve the compound in a high stock concentration if possible (ideally more than 1000-fold of the highest test concentration) and store at −20° C. Serial dilutions of compounds are prepared 1000× concentrated in appropriate solvent (DMSO or H2O). Diluted compounds are transferred to the wells of a V-bottom microtiter plate for further dilution in culture medium (10× concentrated).
The baseline of beating activity is recorded for 20 seconds every 5 minutes up to 30 minutes immediately prior to compound addition on the CardioECR system. 10 μL of 10× compound solution is added to the wells of CardioECR plate using multichannel pipette. The cell response to the compound is recorded for 20 seconds every 2 minutes immediately after compound exposure using CardioECR system. The cell beating activity, including beating rate and beating amplitude, is evaluated at 30 minutes post compound addition.

[2] = tested on: iPSC cardiomyocytes; assay: Inotropic compound test on iPSC cardiomyocytes, xCELLigence RTCA CardioECR (Example V); type: cell-based; conditions: 30 minutes post compound addition; for beating rate: FIG. 6B; for beating amplitude (positive inotropic effect): FIG. 6A
Experimental: The functional maturation of iPSC cardiomyocytes from Example III was tested using inotropic compounds. Results are shown in FIG. 6A-B. In particular, iPSC cardiomyocytes were seeded in the wells of the CardioECR Plate (E-Plate CardioECR 48) for approximately 7 days until they formed a synchronous, stable beating monolayer. The cells were then electrically paced at 1 Hz, 1.5 Hz and 2 Hz for 1 week respectively (week 1: 1 Hz pacing; week 2: 1.5 Hz pacing; week 3: 2 Hz pacing). After pausing the 2 Hz pacing, cell media was replaced with 90 μL of fresh pre-warmed media the night before compound addition. The cells were then continuously paced for additional 8 hours at 2 Hz. The electrical pacing was terminated 5 hours prior to compound addition to ensure that cells would generate a stable beating rate and beating amplitude for treatment. The baseline beating activity was recorded for 20 seconds every 5 minutes up to 30 minutes immediately prior to compound addition. 10 μL of 10× compound solution was then added to the wells of CardioECR plate using a multichannel pipette. The cell response to the compound was recorded for 20 seconds every 2 minutes immediately after compound exposure using CardioECR system. The cell beating activity, including beating rate and beating amplitude, was evaluated at 30 minutes post compound addition.

[3] = tested on: immature cardiomyocytes; conditions: T3 treatment of immature cardiomyocytes; cited from earlier work
[4] = FIG. 8 panel, functional matured iCell cardiomyocytes after pacing, representative concentrations
[5] = spontaneous beating cardiomyocytes

CC(C)NCC(O)c1ccc(O)c(O)c1 (stereo not shown) [isoproterenol]
chronotropic effect [1, 4]: positive chronotropic effect
beating rate ([2]; chronically paced cardiomyocytes (1, 1.5, 2 Hz, 1 week each)): increase
beating amplitude (positive inotropic effect) ([2]; chronically paced cardiomyocytes): increase
beating amplitude (positive inotropic effect) [2, 5]: only observed in paced cells
beating rate [2, 5]: increase

C[C@H]1O[C@@H](O[C@H]2[C@@H](O)C[C@H](O[C@H]3[C@@H](O)C[C@H](O[C@H]4CC[C@@]5(C)[C@H](CC[C@@H]6[C@@H]5C[C@@H](O)[C@]5(C)[C@@H](C7=CC(=O)OC7)CC[C@]65O)C4)O[C@@H]3C)O[C@@H]2C)C[C@H](O)[C@@H]1O [digoxin]
inotropic effect [1, 4]: positive inotropic effect

N[C@@H](Cc1cc(I)c(Oc2ccc(O)c(I)c2)c(I)c1)C(=O)O [T3, Tri-iodo-L-thryonine]
calcium handling properties [3]: enhanced
cardiomyocyte size [3]: increased
contractile force generation [3]: increased
maximal mitochondrial respiration capacity [3]: increased
proliferation [3]: decreased
sarcomere length [3]: increased

Cc1[nH]c(=O)c(C#N)cc1-c1ccncc1 [milrinone]
beating rate ([1]; chronically paced cardiomyocytes, 30 minutes post compound addition): slightly increased
beating amplitude ([1]; electrically paced cardiomyocytes, 30 minutes post compound addition, FIG. 7A): significantly increased
beating rate ([1]; spontaneous beating cardiomyocytes, 30 minutes post compound addition): slightly increased

COC(=O)C1=C(C)NC(C)=C([N+](=O)[O-])C1c1ccccc1C(F)(F)F (stereo not shown) [bayK]
inotropic effect [1, 4]: positive inotropic effect
